According to ChEMBL document CHEMBL3608274, “Design and synthesis of constrained analogs of LCRF-0004 as potent RON tyrosine kinase inhibitors” (Bioorg Med Chem Lett, 2015):

Legend:
[1] = target: Hepatocyte growth factor receptor (Homo sapiens, UniProt P08581); experiment: Inhibition of human c-Met
[2] = target: Macrophage-stimulating protein receptor (Homo sapiens, UniProt Q04912); experiment: Inhibition of human RON
Sequence of Macrophage-stimulating protein receptor (Q04912 25-304 limits assumed): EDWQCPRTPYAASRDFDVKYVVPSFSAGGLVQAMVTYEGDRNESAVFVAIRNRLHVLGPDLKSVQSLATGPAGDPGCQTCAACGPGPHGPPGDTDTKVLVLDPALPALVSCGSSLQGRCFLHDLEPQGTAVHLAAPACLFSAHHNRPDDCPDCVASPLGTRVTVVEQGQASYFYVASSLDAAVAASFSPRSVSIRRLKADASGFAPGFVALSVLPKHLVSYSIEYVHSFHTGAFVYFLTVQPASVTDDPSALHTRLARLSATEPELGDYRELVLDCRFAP
Sequence of Macrophage-stimulating protein receptor (Q04912 310-1400 limits assumed): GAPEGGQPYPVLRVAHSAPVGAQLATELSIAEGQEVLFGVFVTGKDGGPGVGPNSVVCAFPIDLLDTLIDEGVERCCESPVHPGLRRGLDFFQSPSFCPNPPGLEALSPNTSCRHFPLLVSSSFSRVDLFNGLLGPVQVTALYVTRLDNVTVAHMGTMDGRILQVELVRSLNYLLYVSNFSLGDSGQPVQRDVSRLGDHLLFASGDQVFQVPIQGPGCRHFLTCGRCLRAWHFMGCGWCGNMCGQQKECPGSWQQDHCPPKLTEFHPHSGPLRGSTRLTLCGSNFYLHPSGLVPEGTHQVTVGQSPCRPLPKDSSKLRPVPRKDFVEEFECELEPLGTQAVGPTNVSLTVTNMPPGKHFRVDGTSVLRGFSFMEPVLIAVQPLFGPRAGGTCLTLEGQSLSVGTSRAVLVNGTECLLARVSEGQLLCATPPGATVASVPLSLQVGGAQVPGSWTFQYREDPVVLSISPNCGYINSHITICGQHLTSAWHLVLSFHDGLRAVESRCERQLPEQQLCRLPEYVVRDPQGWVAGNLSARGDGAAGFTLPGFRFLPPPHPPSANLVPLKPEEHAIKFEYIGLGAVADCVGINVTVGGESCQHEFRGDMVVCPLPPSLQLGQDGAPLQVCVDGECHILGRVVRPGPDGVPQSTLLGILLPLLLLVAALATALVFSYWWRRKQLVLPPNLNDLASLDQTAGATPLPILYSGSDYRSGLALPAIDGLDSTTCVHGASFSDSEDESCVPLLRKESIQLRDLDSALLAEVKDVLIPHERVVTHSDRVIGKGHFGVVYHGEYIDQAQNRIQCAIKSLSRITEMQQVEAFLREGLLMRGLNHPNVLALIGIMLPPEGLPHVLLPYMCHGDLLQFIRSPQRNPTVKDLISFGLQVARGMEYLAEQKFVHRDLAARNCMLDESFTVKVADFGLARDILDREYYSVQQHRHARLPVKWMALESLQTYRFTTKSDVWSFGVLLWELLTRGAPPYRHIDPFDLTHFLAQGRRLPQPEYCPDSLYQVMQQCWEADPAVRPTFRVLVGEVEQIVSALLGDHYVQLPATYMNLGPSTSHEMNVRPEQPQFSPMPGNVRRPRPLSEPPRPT

Sequence of Hepatocyte growth factor receptor (P08581 whole entry): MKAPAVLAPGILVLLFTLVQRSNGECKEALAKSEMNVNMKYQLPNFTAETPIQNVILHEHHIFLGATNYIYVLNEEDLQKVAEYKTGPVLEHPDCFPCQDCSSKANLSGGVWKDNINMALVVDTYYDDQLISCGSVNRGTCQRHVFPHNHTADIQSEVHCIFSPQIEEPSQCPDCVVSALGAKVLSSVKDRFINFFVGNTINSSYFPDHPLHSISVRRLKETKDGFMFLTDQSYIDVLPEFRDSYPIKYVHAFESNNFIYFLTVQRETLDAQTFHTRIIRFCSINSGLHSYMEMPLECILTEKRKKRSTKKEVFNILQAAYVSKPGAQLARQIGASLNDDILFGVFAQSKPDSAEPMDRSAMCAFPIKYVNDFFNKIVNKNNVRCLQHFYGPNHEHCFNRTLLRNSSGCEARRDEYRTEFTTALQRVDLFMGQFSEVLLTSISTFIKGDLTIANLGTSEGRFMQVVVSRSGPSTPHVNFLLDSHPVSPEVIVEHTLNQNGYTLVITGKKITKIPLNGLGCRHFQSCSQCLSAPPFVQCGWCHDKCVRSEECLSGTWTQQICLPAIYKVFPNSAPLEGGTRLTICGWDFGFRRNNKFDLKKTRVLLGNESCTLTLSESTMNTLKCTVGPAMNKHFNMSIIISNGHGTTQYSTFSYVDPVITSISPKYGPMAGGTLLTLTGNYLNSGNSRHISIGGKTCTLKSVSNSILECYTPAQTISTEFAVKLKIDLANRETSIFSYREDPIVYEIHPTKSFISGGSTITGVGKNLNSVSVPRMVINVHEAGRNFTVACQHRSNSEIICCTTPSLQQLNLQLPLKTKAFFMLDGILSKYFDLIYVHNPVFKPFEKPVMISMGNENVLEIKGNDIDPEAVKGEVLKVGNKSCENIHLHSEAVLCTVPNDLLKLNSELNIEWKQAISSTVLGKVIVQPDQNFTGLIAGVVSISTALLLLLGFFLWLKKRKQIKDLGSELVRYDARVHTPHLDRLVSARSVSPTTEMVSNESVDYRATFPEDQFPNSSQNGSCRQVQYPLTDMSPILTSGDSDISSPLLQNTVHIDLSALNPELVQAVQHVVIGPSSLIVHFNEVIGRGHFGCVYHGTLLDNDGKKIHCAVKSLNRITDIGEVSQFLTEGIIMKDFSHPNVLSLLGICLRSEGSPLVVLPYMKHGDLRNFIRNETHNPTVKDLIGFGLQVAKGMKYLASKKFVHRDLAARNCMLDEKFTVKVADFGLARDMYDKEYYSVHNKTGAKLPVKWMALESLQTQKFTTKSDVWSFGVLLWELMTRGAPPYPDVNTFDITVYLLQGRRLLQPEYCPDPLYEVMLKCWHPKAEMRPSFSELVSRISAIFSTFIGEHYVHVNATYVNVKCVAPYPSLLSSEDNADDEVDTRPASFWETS

IC50 [1]: 12 nM
IC50 [2]: 10 nM
SMILES: Cn1cnc(-c2cc3nccc(Oc4ccc(NC(=O)c5cnn(-c6ccccc6)c5C(F)(F)F)cc4F)c3s2)c1
